In patent US10071990B2, “Site-specific orthogonal labeling of the carboxy terminus of α-tubulin in live cells” (The Research Foundation for The State University of New York, priority 2013, dated 2018):
Like-named read-outs stand apart in the source and are kept apart here. Blank lines part the entries; values can stand above or below the compound they belong to.

Legend:
[1] = Absorption and fluorescence spectra and quantum yield; type: physicochemical; conditions: in methanol at 25° C.
Experimental: To test this hypothesis, the absorption and fluorescence spectra of coumarin hydrazine and the salicylaldehyde hydrazone of coumarin hydrazine were measured, which serves as a model compound for the protein-bound hydrazone. Hydrazone formation causes a shift in both the absorption and emission maxima of coumarin hydrazine and a significant increase in quantum yield (Table 2). Thus, as a result of the difference in the spectroscopic window and the quantum yields of coumarin hydrazine and its salicylaldehyde hydrazone, fluorescence from unreacted coumarin hydrazine can be averted.

tubulin tyrosine ligase = molecular target: T1, tubulin tyrosine ligase (Homo sapiens, UniProt Q8NG68); assay: Inhibition of [3H]-L-tyrosine incorporation into tubulin by TTL; type: biochemical
T1 construct: made in house; host or cells: Escherichia coli BL21
T1 sequence (Q8NG68 1-377): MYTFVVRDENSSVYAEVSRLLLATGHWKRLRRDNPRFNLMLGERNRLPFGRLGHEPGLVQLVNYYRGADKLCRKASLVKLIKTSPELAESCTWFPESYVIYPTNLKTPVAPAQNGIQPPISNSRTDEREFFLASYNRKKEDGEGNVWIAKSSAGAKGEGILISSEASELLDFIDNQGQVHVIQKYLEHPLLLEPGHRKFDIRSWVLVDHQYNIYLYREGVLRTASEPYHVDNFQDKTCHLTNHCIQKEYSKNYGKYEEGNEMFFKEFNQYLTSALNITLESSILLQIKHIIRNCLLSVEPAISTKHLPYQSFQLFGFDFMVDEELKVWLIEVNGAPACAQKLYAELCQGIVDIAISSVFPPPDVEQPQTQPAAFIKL
Experimental: Tubulin Tyrosine Ligase. An initial supply of TTL was a gift of Prof. Dr. Jürgen Wehland and Dr. Christian Erck (Gesellschaft für Biotechnologische Forschung, Germany) and was stored at −80° C. Human TTL was prepared using expression vector p Receiver 05x (Genecopoeia, Md.), transformed into the Escherichia coli expression strain BL21.
[3H]-Tyr Incorporation Assay. TTL was thawed and diluted to 1 mg mL^−1 immediately before use. Detyrosinated tubulin (10 μM tubulin) in TTL buffer was combined with […] μL^−1 [3H-Tyr], 0.1 μg μL^−1 TTL, and various concentrations of inhibitor. The mixture was allowed to react for 30 min at 37° C. A 35 μL aliquot of the sample was placed onto DEAE chromatography paper (Whatman) and allowed to dry for 30 min. The protein was fixed using 200 μL of 10% acetic acid and allowed to dry for 10 min. Excess [3H-Tyr] was removed by 2 washes with 3.5 mL of 100% ethanol. The paper was allowed to dry for 30 min and then was combined with 10 mL of Scintiverse (BD) scintillation fluid. The amount of [3H]-tyrosine on each filter was determined using a β-counter.

PC3 cells [2] = assay: Effect on cell morphology and microtubule network (immunofluorescence); type: cell-based; conditions: 24 hour treatment followed by treatment with a fluorophore
Experimental: PC3 cells were grown in F12K medium supplemented with unnatural amino acid for 24 h. Cells were washed and then treated with fluorophores for 24 h before fixing with methanol. Cells were then processed for immunofluorescence using tubulin antibody (red) and DAPI (blue).
PC3 cells were grown in F12K medium supplemented with unnatural amino acid for 24 h. Cells were washed and treated with a fluorophore for 24 h before fixing with methanol. Cells were then processed for immunofluorescence using tubulin antibody (red) and DAPI (blue).

cells = assay: SRB assay after 96 h treatment with amino acid; type: cell-based; conditions: for IC50: cells treated 96 h, read-out: IC 50 (toxicity)
PC3 cells [3] = assay: SRB cytotoxicity of amino acid and fluorophore on live cells; type: cell-based; conditions: 24 hour period
Experimental: PC3 cells were grown in medium supplemented with unnatural amino acid or vehicle for 24 h. Cells were then treated with fluorophore or vehicle for 24 h, following which an SRB assay was performed to assess the cytotoxicity of the molecules.
FIGS. 12A-12C show graphs of cytotoxicity of amino acid and fluorophore on live cells. The labeling technique is not detrimental to PC3 cell survival. PC3 cells were grown in medium supplemented with unnatural amino acid or vehicle (2% v/v, 10 mM phosphate buffer, pH 7) for 24 h. Cells were then treated with fluorophore or vehicle (1% v/v DMSO) for 24 h. Following which SRB assay was performed to assess the cytotoxicity of the molecules.

[4] = Kinetics of hydrazone formation by absorption difference spectroscopy; conditions: reaction with 3-formyltyrosine, PME buffer pH 6.9, 25° C.
Text: Removal and replacement of the C-terminal tyrosine of α-tubulin can be assessed by Western blot. […] The presence of a carbonyl in α-tubulin was confirmed reacting the protein with dinitrophenylhydrazine (DNPH) followed L-tyrosine or 3-formyltyrosine as described under Methods and then subjected to SDS-PAGE. Top: Western blot with tyrosinated α-tubulin antibody (Sigma-Aldrich TUB-1A2). Bottom: Coomassie stain. Lane 1: Tubulin. Lane 2: Tubulin treated with CPA. Lane 3: CPA-treated tubulin retyrosinated with tyrosine. Lane 4: CPA-treated tubulin retyrosinated with 3-formyltyrosine. The mass of protein loaded each well was 0.66 μg for the Western blot and 10 μg for the protein stain. Hydrazone Formation: Effect of the Structure of the Nucleophile. Reactions of aldehydes and ketones with hydrazines, hydroxylamines, and amines have been extensively studied (33). The rate vs pH curve is bellshaped; the maximum reaction rate is around the pKa of the hydrazine. […]
Kinetic Measurements. Kinetics of hydrazone formation were measured using absorption difference spectroscopy. […] The change in absorbance for one wavelength was selected from the spectral data, and these values were plotted as a function of time. The data were analyzed as a single pseudo-first-order reaction and were fit to the appropriate equation using SigmaPlot 10.0.

[5] = from reference 34; cited from earlier work
[6] = inhibition of tubulin tyrosine ligase, 10 μM detyrosinated tubulin, 30 min at 37° C.

Compound: CC(=O)c1cc(C[C@H](N)C(=O)O)ccc1O [AcY, 3-acetyltyrosine]
cytotoxicity compared with 3fY (PC3 cells [3]): less cytotoxic over 24 hour period than 3fY
effect on microtubule network and cell morphology (PC3 cells [2]): does not alter the microtubule network or cell morphology
IC50 (cells): > 5000 µM

Compound: N[C@@H](Cc1ccc(O)cc1)C(=O)O [Tyrosine]
Ki (tubulin tyrosine ligase; [6]): 25 µM

Compound: NNC(=O)[C@@H](N)Cc1ccc(O)cc1 [Yzide, tyrosine hydrazide, reference compound]
effect on microtubule network and cell morphology (PC3 cells [2]): does not alter the microtubule network or cell morphology
toxicity (cells; 5 mM ligand, 96 h): No toxicity observed
IC50 (cells): > 5000 µM

Compound: Cc1cc(=O)oc2cc(NN)ccc12 [coumarin hydrazine, 7-hydrazino-4-methyl coumarin]
time to complete hydrazone formation [4]: ≤ 120 min
second-order rate constant of hydrazone formation ([4]; no catalyst): 0.883 M⁻¹ s⁻¹
Abs max [1]: 360 nm
Em max [1]: 432 nm
φ (quantum yield) [1]: 0.046

Compound: NNc1ccccc1 [phenyl hydrazine]
pKa [5]: 5.3

Compound: Phenyl hydrazide
pKa [5]: 3.1

Continued, in another order:

Abs max [1]: 380 nm
Em max [1]: 459 nm
φ (quantum yield) [1]: 0.131
Compound: Cc1cc(=O)oc2cc(NN=Cc3ccccc3O)ccc12

Ki (tubulin tyrosine ligase; [6]): 200 µM
Compound: Nc1cc(C[C@H](N)C(=O)O)ccc1O [3-Aminotyrosine]

Ki (tubulin tyrosine ligase): 200 µM
Compound: [N-]=[N+]=Nc1cc(C[C@H](N)C(=O)O)ccc1O [3-Azidotyrosine]

Ki (tubulin tyrosine ligase): 300 µM
Compound: N[C@@H](Cc1ccc(O)c(C=O)c1)C(=O)O [3-Formyltyrosine]
effect on microtubule network and cell morphology (PC3 cells [2]): does not alter the microtubule network or cell morphology
IC50 (cells): > 25 µM

Ki (tubulin tyrosine ligase): > 4000 µM
Compound: Nc1ccc(C[C@H](N)C(=O)O)cc1 [4-Aminophenylalanine]
